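Tested at 5 concentrations; 48 h exposure; 96-well plates; endpoints linearly interpolated, else capped at highest concentration. The concentration for 50% growth inhibition is given as GI50.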 The source made the active and inactive calls. No stated cut-off is given here; in the data, active = GI50 up to about 1.1 µM and inactive = higher.
Legend:
Experiment in all cases: inhibition of tumour cell growth, NCI panel, 48 h
[1] = test system: ACHN
[2] = test system: Hs-578T
[3] = test system: OVCAR-4
[4] = test system: UACC-62
[5] = test system: SNB-19
[6] = test system: UO-31
[7] = test system: HCT-15
[8] = test system: NCI/ADR-RES
[9] = test system: SK-MEL-5
[10] = test system: LOX IMVI
[11] = test system: UACC-257
[12] = test system: SK-MEL-2
[13] = test system: SR
[14] = test system: A549
[15] = test system: SF-295
[16] = test system: K562
[17] = test system: NCI-H226
[18] = test system: SN12C
[19] = test system: HCT-116
[20] = test system: SF-268
[21] = test system: MDA-MB-435
[22] = test system: NCI-H23
[23] = test system: U-251
[24] = test system: HL-60
[25] = test system: OVCAR-5
[26] = test system: Malme-3M
[27] = test system: IGROV-1
[28] = test system: MOLT-4
[29] = test system: SW-620
[30] = test system: PC-3
[31] = test system: NCI-H522
[32] = test system: SK-MEL-28
[33] = test system: KM12
[34] = test system: HOP-62
[35] = test system: DU-145
[36] = test system: BT-549
[37] = test system: CAKI-1
[38] = test system: M14
[39] = test system: SK-OV-3
[40] = test system: A498
[41] = test system: MDA-MB-231
[42] = test system: 786-0
[43] = test system: T47D
[44] = test system: RXF 393
[45] = test system: EKVX
[46] = test system: HOP-92
[47] = test system: OVCAR-8
[48] = test system: OVCAR-3
[49] = test system: HT-29
[50] = test system: MCF7
[51] = test system: MDA-N
[52] = test system: COLO 205
[53] = test system: RPMI-8226
[54] = test system: TK-10

Q: Which GI50 [1] does the source give for CC(C)CC1c2[nH]c3ccccc3c2C[C@H]2C(=O)NC(COC(C)(C)C)C(=O)N12 (stereo partly drawn) here?
A: 26.8 µM (inactive)

Q: And the GI50 [2]?
A: 13.3 µM (inactive)

Q: What about the GI50 [3] of the same compound?
A: 30.5 µM (inactive)

Q: And the GI50 [4]?
A: 18.2 µM (inactive)

Q: And the GI50 [5]?
A: 33.9 µM (inactive)

Q: What about the GI50 [6] of the same compound?
A: 32.1 µM (inactive)

Q: What about the GI50 [7] of the same compound?
A: 26.9 µM

Q: What about the GI50 [8] of the same compound?
A: 20.8 µM (inactive)

Q: And the GI50 [9]?
A: 21.8 µM (inactive)

Q: What about the GI50 [10] of the same compound?
A: 17.3 µM (inactive)

Q: What about the GI50 [11] of the same compound?
A: 19 µM (inactive)

Q: And the GI50 [12]?
A: 19.9 µM (inactive)

Q: And the GI50 [13]?
A: 16.4 µM (inactive)

Q: And the GI50 [14]?
A: 31.9 µM (inactive)

Q: And the GI50 [15]?
A: 17.3 µM (inactive)

Q: And the GI50 [16]?
A: 31.7 µM (inactive)

Q: What about the GI50 [17] of the same compound?
A: 33.2 µM (inactive)

Q: And the GI50 [18]?
A: 21.2 µM (inactive)

Q: What about the GI50 [19] of the same compound?
A: 18.6 µM (inactive)

Q: What about the GI50 [20] of the same compound?
A: 23.6 µM (inactive)

Q: What about the GI50 [21] of the same compound?
A: 20.5 µM (inactive)

Q: And the GI50 [22]?
A: 28.7 µM (inactive)

Q: And the GI50 [23]?
A: 20.4 µM (inactive)

Q: What about the GI50 [24] of the same compound?
A: 26.4 µM (inactive)

Q: What about the GI50 [25] of the same compound?
A: 23.6 µM (inactive)

Q: And the GI50 [26]?
A: 19.6 µM (inactive)

Q: What about the GI50 [27] of the same compound?
A: 23.3 µM (inactive)

Q: And the GI50 [28]?
A: 22.2 µM (inactive)

Q: What about the GI50 [29] of the same compound?
A: 31 µM (inactive)

Q: What about the GI50 [30] of the same compound?
A: 22 µM (inactive)

Q: And the GI50 [31]?
A: 16.4 µM (inactive)

Q: What about the GI50 [32] of the same compound?
A: 31.5 µM (inactive)

Q: What about the GI50 [33] of the same compound?
A: 24.1 µM (inactive)

Q: What about the GI50 [34] of the same compound?
A: 46.2 µM (inactive)

Q: What about the GI50 [35] of the same compound?
A: 34.5 µM (inactive)

Q: What about the GI50 [36] of the same compound?
A: 23.6 µM (inactive)

Q: What about the GI50 [37] of the same compound?
A: 28.2 µM (inactive)

Q: And the GI50 [38]?
A: 20.8 µM (inactive)

Q: And the GI50 [39]?
A: > 100 µM (inactive)

Q: And the GI50 [40]?
A: 30.3 µM (inactive)

Q: And the GI50 [41]?
A: 18.7 µM (inactive)

Q: What about the GI50 [42] of the same compound?
A: 32.8 µM (inactive)

Q: And the GI50 [43]?
A: 13.2 µM (inactive)

Q: What about the GI50 [44] of the same compound?
A: 14.7 µM (inactive)

Q: And the GI50 [45]?
A: 24.9 µM (inactive)

Q: What about the GI50 [46] of the same compound?
A: 31.8 µM (inactive)

Q: And the GI50 [47]?
A: 33.1 µM (inactive)

Q: And the GI50 [48]?
A: 3.05 µM (inactive)

Q: What about the GI50 [49] of the same compound?
A: 20.9 µM (inactive)

Q: And the GI50 [50]?
A: 31.6 µM (inactive)

Q: What about the GI50 [51] of the same compound?
A: 21.8 µM (inactive)

Q: And the GI50 [52]?
A: 20.4 µM (inactive)

Q: What about the GI50 [53] of the same compound?
A: 23.9 µM (inactive)

Q: What about the GI50 [54] of the same compound?
A: 23 µM (inactive)

Q: Which results are given for CC(C)CC1c2[nH]c3ccccc3c2C[C@H]2C(=O)NC(CCC(=O)OC(C)(C)C)C(=O)N12 (stereo partly drawn)?
A: GI50 [1]: 30.8 µM (inactive); GI50 [2]: 15.1 µM (inactive); GI50 [3]: 37.3 µM (inactive); GI50 [4]: 30.5 µM (inactive); GI50 [5]: 37.3 µM (inactive); GI50 [6]: 33 µM (inactive); GI50 [7]: 33.8 µM; GI50 [8]: 30.3 µM (inactive); GI50 [9]: 25.9 µM (inactive); GI50 [10]: 22.9 µM (inactive); GI50 [11]: 25.9 µM (inactive); GI50 [12]: 18.4 µM (inactive); GI50 [13]: 22 µM (inactive); GI50 [14]: 34 µM (inactive); GI50 [15]: 19.4 µM (inactive); GI50 [16]: 36.9 µM (inactive); GI50 [17]: 49.7 µM (inactive); GI50 [18]: 22.8 µM (inactive); GI50 [19]: 28.8 µM (inactive); GI50 [20]: 27.4 µM (inactive); GI50 [21]: 36 µM (inactive); GI50 [22]: 34.6 µM (inactive); GI50 [23]: 29 µM (inactive); GI50 [24]: 28.1 µM (inactive); GI50 [25]: 34.3 µM (inactive); GI50 [26]: 24.4 µM (inactive); GI50 [27]: 33.5 µM (inactive); GI50 [28]: 22.6 µM (inactive); GI50 [29]: 45 µM (inactive); GI50 [30]: 23.4 µM (inactive); GI50 [31]: 25.2 µM (inactive); GI50 [32]: 52.1 µM (inactive); GI50 [33]: 40.6 µM (inactive); GI50 [34]: 23 µM (inactive); GI50 [35]: 47.1 µM (inactive); GI50 [36]: 33.5 µM (inactive); GI50 [37]: 42.4 µM (inactive); GI50 [38]: 36.7 µM (inactive); GI50 [39]: 42.5 µM (inactive); GI50 [40]: 40.4 µM (inactive); GI50 [41]: 27.2 µM (inactive); GI50 [42]: 43 µM (inactive); GI50 [43]: 15.8 µM (inactive); GI50 [44]: 19.1 µM (inactive); GI50 [45]: 35.2 µM (inactive); GI50 [46]: 27.5 µM (inactive); GI50 [47]: 39.3 µM (inactive); GI50 [48]: 16.8 µM (inactive); GI50 [49]: 21.1 µM (inactive); GI50 [50]: 36.9 µM (inactive); GI50 [51]: 30.7 µM (inactive); GI50 [52]: 20.6 µM (inactive); GI50 [53]: 25.8 µM (inactive); GI50 [54]: 25.8 µM (inactive)
